Data: BindingDB's records for doi:10.1021/jm00011a008 (Upjohn, 1995)

Molecular target: T1, Dimer of Gag-Pol polyprotein [489-587] (Human immunodeficiency virus 1, UniProt P12497)
T1 construct: 489-587
Experiment: Protease Inhibition Assay
Conditions: pH 5; 22 °C
Description: HIV-1 protease was purified and refolded from E. coli inclusion bodies. […] In the presence of HIV-l protease, the substrate is rapidly cleaved into two parts. The biotinylated amino terminal fragment binds to the avidin beads while the FITC-containing carboxy1 terminal fragment is removed through the membrane. […] The bound fluorescence is obtained by processing on an IDEXX Screen Machine. Determination of Ki values with this assay requires analysis under conditions in which substrate concentration resides substantially below Km and the inhibitor concentrations greatly exceeds the Ki value and the enzyme concentration.

Row | Compound | Ki [nM]
1 | CC(C)CC(c1ccccc1)c1c(O)c2c(oc1=O)CCCCCC2 (stereo not drawn) [5,6,7,8,9,1O-Hexahydro-4-hydroxy-3-(3-methyl-l-phe-nylbutyl)-W-cycloocta[b]pyran-2-one] | 90
2 | CCCCC(c1ccccc1)c1c(O)c2c(oc1=O)CCCCCC2 (stereo not given) [5,6,7,8,9,10-Hexahydroro-4-hydroxy-1-phenylpentyl)-W-cycloocta[blpyran-2-one] | 62
3 | O=c1oc2c(c(O)c1C(c1ccccc1)c1ccccc1)CCCCCC2 [3-(Diphenylmethyl)-5,6,7,8,9,1O-hexahydro-4-hydroxy-W-cycloocta[b]pyran-2-one] | 180
4 | CC(C)C(c1ccccc1)c1c(O)c2c(oc1=O)CCCCCC2 (stereo not given) [5,6,7,8,9,1O-Hexahydro-4-hydroxy-3-(2-methyl-nylpropyl)-W-cycloocta[b]pyran-2-one] | 22
5 | CCCC(c1ccccc1)c1c(O)c2c(oc1=O)CCCCCC2 (stereo not given) [4-hydroxy-3-(1-phenylbutyl)-2H,5H,6H,7H,8H,9H,10H-cycloocta[b]pyran-2-one] | 29
